The source of these data is patent US20250281392A1, “TOPICAL DELIVERY OF EPINEPHRINE AND PRODRUG COMPOSITIONS” (Aquestive Therapeutics, Inc., priority 2024, published 2025).

Structures can show the parent of a compound that is named as a salt.

For one data set, the system named is NK cells. Nature of the data set: NK activation assay, CD25+CD69+ NK cells by flow cytometry. The class given is cell-based, human. Conditions: for % inactivation relative to vehicle: human NK % CD25+CD69+ cells. How it is done: IC50 is a measurement of how much of a drug is needed to inhibit a biological process by half.
Peripheral blood mononuclear cells (PBMC) were isolated over a density gradient from six donor buffy coats and CD56+NK were separated using magnetic selection. Purity of sorted NIK cells was assessed by flow cytometry using CD56 as a marker of NK cells.
Following magnetic isolation, NK cells were seeded at 5×10^5 NK cells per well in a 48 well plate alongside NK activation beads (prepared as per manufacturer's protocol) at a 1:1 bead to cell ratio, IL-2 (final concentration 500 IU/ml) and either prodrug/epinephrine at 5 different doses (see section 3.6 below for further details), cortisol/dexamethasone (positive controls) or vehicle (media only). NK cells were cultured with the NK activation beads for two days at 37° C. in the presence of 5% CO2. After two days, supernatants were collected from each condition for future TR-FRET analysis (AQV-24-001_AM-1 only, see below) and the remaining cells from each condition were assessed for expression of surface markers CD25, CD69 and for cell viability using eBioscience™ Fixable Viability Dye. Samples were then treated with eBioscience Intracellular Fixation & Permeabilization Buffer Set to allow staining of intracellular granzyme B. Marker expression was determined by flow cytometry and appropriate “Fluorescence-Minus-One controls” controls were used. Flow cytometry data was analysed using FlowJo analysis software and data was graphed using Graph Pad Prism.
The study was performed in: 3 donors Each experimental condition was tested in: singlicate. For Flow cytometry, viability was measured and cells were phenotyped for NK cell activation (CD25, CD69, granzyme B). Raw and analysed data are provided.
Each experimental condition was tested in: singlicate. For Flow cytometry, viability was measured and cells were phenotyped for NK cell activation (CD25, CD69, granzyme B). Raw and analysed data are provided. Supernatants were harvested in triplicate per condition and stored until further analysis of IFNγ content by TR-FRET. Data was analysed and graphed. Raw and analysed data are provided. […]

Data set [1] can be described thus: Ex vivo permeation and flux of epinephrine prodrug topical gels through porcine ear tissue. The class given is in vitro ADME. The following applies: topical gel containing 0.5% or 5.0% (w/w) dipivefrin HCl; 400 μm tissue. How it is done:
Both in vitro and ex vivo permeation was measured for the following formulation. […]
Exemplary formulations were evaluated including Formulations 1-3, with API loading from 2.5-10% w/w.
The claimed topical compositions were tested for permeation using both porcine ear and buccal tissue.
The tested tissues were Porcine Ear vs. Buccal Tissue through 24 hours.

The next data set deals with TNFα, IL-10. Conditions: cited from earlier work.
Details of data set [2]: species or system Sinclair Nanopigs. The following applies: in vivo. As to the method: A study was conducted to evaluate the systemic pharmacokinetic characteristics of Dipivefrin Topical Gel when administered once by topical application to intact, abraded, and wounded skin of Sinclair Nanopigs™. The study design was as follows. Animals were food fasted for at least 8 hours. Animals were monitored until fully recovered. Anesthesia procedures were documented and retained in the study data. The dose formulations were administered to appropriate animals by topical application on the dorsal surface (Dose Site #1) once on Day 1. The dose site was and/or shaved and marked at least one day prior to Day 1. At least the four corners of the dose sites will be marked with indelible ink based on the appropriate dose area. At least the four corners of the tape stripping area were marked with indelible ink for Group 2 and 3 animals. The site for Group 2 and 3 animals was gently abraded via tape stripping (conducted 50 times). All animals will have a uniform topical application using a gloved hand and/or spatula to rub the entire dose amount throughout the total dose area (for 1 minute). Topical application to the dose area for Group 4 animals will include application of the dose amount over the created wounds. If an animal is observed to have test material remaining following the application time, the observation will be documented. Dose formulations will be allowed to equilibrate at ambient temperature for at least 15 minutes prior to and continuously throughout dose administration Prior to dermal (topical) application on Day 1, the dose site for Group 1 to 3 animals were wiped clean with water-moistened gauze or paper towels then wiped dry with dry gauze or paper towels. Following washing and drying, […]. On Day 1, Group 4 animals: The animal backs were prepared for wound creation by performing a surgical scrub. Two (2) wounds were created on the dorsal surface of each Group 4 animal within a 7×7 cm area using an 8 mm punch biopsy. Steps were taken to ensure the area designated for wound creation is within the total dose area (8×8 cm). […]

The subject of a further data set is IL-1b, IL-10. The following applies: cited from earlier work.
A short description of data set [3]: Ex vivo permeation of ondansetron formulation through dermatomed porcine ear (tissue thickness / tissue type). The class given is in vitro ADME. How it is done: Referring to FIG. 2A (through 6 hour timepoint) and FIG. 2B (through 24 hour timepoint), dermatome sectioning of the porcine ear was conducted to sample membranes of varying thickness that both capture the complete epidermis and a varying thickness of the dermis. Dermatome sectioning completed at 200 μm, 300 μm, and 400 μm to provide membranes of a varying total thickness.
As porcine tissue varies with regard to stratum corneum and epidermal thickness as a function of sampling location, multiple sampling locations have been selected for comparison. Dermatome sectioning of multiple porcine tissue samples at a constant thickness. Dermatome sectioning completed at 400 μm. Tissue types evaluated included porcine ear, shoulder, rump, and belly locations
Referring to FIG. 3A (through 400 minutes) and FIG. 3B (through 1500 minutes), the average amount of ondansetron permeated (in ug) is measured as a function of time. The permeation is measured through varying intact porcine ear tissue types at constant thickness (400 um total thickness). […] Given the comparably low standard deviation and the lack of ondansetron detected in the receiver media at t=0 minutes compared to other tissue types, this tissue type has been selected for continued ex-vivo permeation method development.

A short description of data set [4]: Stability of topical gel formulations (assay and degradant generation at 25° C./60% RH and 40° C./75% RH). The class given is physicochemical. Conditions: Formulation 1, 5% w/w API; accelerated conditions 40° C./75% RH. As to the method:
An exemplary formulation is provided below.
Multiple dipivefrin gel formulations were evaluated. Formulations 1-3: API loading ranging from 2.5-10% w/w. Formulation 4: Reduced ethyl alcohol (50%) of original loading. Formulation 5: Reduced diethylene glycol monoethyl ether (50%) of original loading. Formulation 6: Reduced propylene glycol (50%) of original loading.
The stability of the topical formulation was tested in two assays. Formulation 1 was evaluated with API loading of 5% w/w. Assay trends are directed downward under accelerated conditions (40° C./75% RH)
Stability trends for a claimed topical formulation (AQEP-09) was evaluated by measuring degradant generation. Formulation 1 was tested with API loading of 5% (% w/w).
The following formulations are exemplary.

[5] abbreviates: tissue thickness 200 μm, donor cell empty.
[6] abbreviates: tissue thickness 400 μm, donor cell filled.

Turning to `C[C@@H]1C[C@H]2[C@@H]3CCC4=CC(=O)C=C[C@]4(C)[C@@]3(F)[C@@H](O)C[C@]2(C)[C@@]1(O)C(=O)CO` [Dexamethasone], the “% inactivation relative to vehicle” value in the data set on NK cells (200 nM) turned out to be 22%; in the data set on NK cells (1 μM), 19%.
For `CNCC(O)c1ccc(OC(=O)C(C)(C)C)c(OC(=O)C(C)(C)C)c1` (centres unmarked) [Dipivefrin HCl], the “ex vivo permeation through porcine ear tissue” value in data set [1] is listed as “Significant permeation”.
Regarding `NC[C@H](O)c1ccc(O)c(O)c1` [norepinephrine], in the data set with TNFα, IL-10, the IL-10 secretion entry was “inducing rapid IL-10 secretion” and the TNFα entry was “potently suppresses”.
For `CNC[C@H](O)c1ccc(O)c(O)c1` [Epinephrine], in data set [2] (Sinclair Nanopig, pig, topical or ocular), the “wounded to intact skin ratio for Cmax, epinephrine plasma” value is 3.90. In data set [2], the “PK parameters in plasma, intact skin versus abraded skin” value is reported as “no significant difference”. The “CD25+CD69+ NK cells compared to vehicle” value in the data set with NK cells (5 doses, 6 donors (donor 1 removed)) is “consistent reduction”. In addition, the “% inactivation relative to vehicle” value in the data set with NK cells (500 nM) came out at 65%; in the data set with NK cells (1000 nM) it was 61%; with NK cells (2500 nM), 51%. Also, the “suppression of activation of NK cells, Epinephrine and Dipivefrin combined for analysis” value in the data set on NK cells (range of concentrations, exceeding IC50 at 70, 140 and 280 nM) is “effective suppression”. Moreover, the “serum concentrations of IL-10” value in the data set with IL-1b, IL-10 (humans) is listed as “increases serum concentrations”. Further, the “serum concentrations of IL-1b” value with IL-1b, IL-10 (septic patients following treatment) is given as “decreased serum concentrations of IL-1b”.
Consider `Cc1nccn1CC1CCc2c(c3ccccc3n2C)C1=O` (centres unmarked) [Ondansetron], for which, in data set [3] (setting [5]), the “Amount Ondansetron Permeated, 6 hours” value is 21.2 (±2.5) μg and the “Amount Ondansetron Permeated, 24 hours” value was 542.4 (±74.3) μg. In data set [3] (setting [6]), the “Amount Ondansetron Permeated, 6 hours” value is listed as 5.7 (±3.9) μg and the “Amount Ondansetron Permeated, 24 hours” value is listed as 43.8 (±19.4) μg.
As to `C[C@]12CCC(=O)C=C1CC[C@@H]1[C@@H]2[C@@H](O)C[C@@]2(C)[C@H]1CC[C@]2(O)C(=O)CO` [Cortisol], the “% inactivation relative to vehicle” value in the data set on NK cells (200 nM) was 39%.
Regarding `CNCC(O)c1ccc(OC(=O)C(C)C)c(OC(=O)C(C)C)c1` (centres unmarked) [AQEP-09, Dibutepinephrine], the “degradant formation trends (epinephrine, PD-15, RRT 1.80)” value in data set [4] is on record as “directed upward”.
